Read-outs that look alike come from different tables or passages of the source.
What was measured:
[1] = molecular target: Beta Secretase enzyme (BACE) (Homo sapiens (Human), UniProt P56817); assay: In vitro enzymatic BACE FRET assay; type: biochemical; settings: read-out: BACE 1 FRET assay IC50
Procedure, shortened: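 Reactions ran in 0.05 M acetate pH 4.2 with 10% DMSO final and 100 uM genapol. They were started with 50 nM peptide FRET substrate (fluorophore and quencher flanking the BACE cleavage site) and incubated one hour. Tris addition raised the pH to neutral to stop the reaction before fluorescence reading.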

Cathepsin D (Cat D) = Cathepsin D (Cat D) (Homo sapiens (Human), UniProt P07339); assay: In vitro enzymatic Cathepsin D (Cat D) FRET assay; type: biochemical; settings: read-out: CatD IC50
Chain of Cathepsin D (Cat D) (P07339 65-412, species assumed): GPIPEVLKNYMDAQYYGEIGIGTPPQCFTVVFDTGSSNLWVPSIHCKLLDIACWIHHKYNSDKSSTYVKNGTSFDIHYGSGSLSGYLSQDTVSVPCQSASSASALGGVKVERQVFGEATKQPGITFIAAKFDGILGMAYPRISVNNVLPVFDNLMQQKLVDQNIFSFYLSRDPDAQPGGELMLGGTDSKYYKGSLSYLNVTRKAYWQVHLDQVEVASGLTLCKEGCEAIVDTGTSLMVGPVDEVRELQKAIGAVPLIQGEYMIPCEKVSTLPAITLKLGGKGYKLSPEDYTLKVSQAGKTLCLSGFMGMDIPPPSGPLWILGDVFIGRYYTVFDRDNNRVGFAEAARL
Procedure, shortened: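 CHO-expressed recombinant Cat D cleaves a fluorophore/quencher FRET peptide (20 nM) in 0.05 M citrate pH 3.5, 5 mM CHAPS, 10% DMSO final, over 1 h. Tris addition neutralizes pH to stop the reaction; fluorescence read at excitation 500 nm, emission 580 nm.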

[2] = system: Aβ40 in conditioned medium of cells stably expressing Amyloid Precursor Protein (APP); assay: In vitro BACE cell-based assay (Aβ40 sandwich ELISA); settings: Homo sapiens
Procedure, shortened: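 Secreted Aβ40 was quantified by sandwich ELISA (pAb40 capture, biotinylated 6E10 detection, Europium time-resolved fluorescence). IC50 derived from percent inhibition versus concentration.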

[3] = HEK293, HEK cells, average, read-out: HEK cell assay IC50
[4] = HEK293, average IC50, HEK cells, read-out: HEK cell assay IC50
[5] = average IC50, BACE enzyme assay
[6] = average IC50, cathepsin D enzyme assay
[7] = HEK293, average IC50, HEK cell assay, read-out: HEK cell assay IC50
[8] = HEK293, read-out: HEK cell assay IC50

Chain of Beta Secretase enzyme (BACE) (P56817 46-501): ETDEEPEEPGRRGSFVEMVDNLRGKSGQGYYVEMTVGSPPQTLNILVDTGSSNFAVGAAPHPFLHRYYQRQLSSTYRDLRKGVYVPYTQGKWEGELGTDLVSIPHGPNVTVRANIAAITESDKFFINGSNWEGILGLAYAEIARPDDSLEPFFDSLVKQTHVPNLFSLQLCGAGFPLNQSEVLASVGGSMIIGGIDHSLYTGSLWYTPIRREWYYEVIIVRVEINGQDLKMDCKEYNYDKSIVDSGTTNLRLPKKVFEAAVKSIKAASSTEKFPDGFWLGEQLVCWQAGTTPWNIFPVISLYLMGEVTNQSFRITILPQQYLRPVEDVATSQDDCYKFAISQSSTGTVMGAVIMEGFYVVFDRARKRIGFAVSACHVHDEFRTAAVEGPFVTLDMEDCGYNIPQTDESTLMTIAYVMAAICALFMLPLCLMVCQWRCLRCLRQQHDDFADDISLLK

Row | SMILES | IC50 ([1]; average IC50) [µM] | IC50 (Cathepsin D (Cat D); average IC50) [µM] | IC50 [1, 5] [µM] | IC50 (Cathepsin D (Cat D); [6]) [µM] | IC50 [2, 7] [µM] | further results
1 | C[C@@]1(c2cc(NC(=O)c3cnc(C(F)F)cn3)cc(F)c2F)C[C@@H](C(F)(F)F)OC(N)=N1 [Example 193, N-(3-((4S,6S)-2-amino-4-methyl-6-(trifluoromethyl)-5,6-dihydro-4H-1,3-oxazin-4-yl)-4,5-difluorophenyl)-5-(difluoromethyl)pyrazine-2-carboxamide] | 0.0461 | > 400 | – | – | – | IC50 ([1]; average): 0.075 µM; IC50 (Cathepsin D (Cat D); average): 1270 µM; IC50 [2, 3]: 0.018 µM; IC50 [2, 4]: 0.0213 µM
2 | N#Cc1ccc(C(=O)Nc2cccc([C@]3(CF)C[C@@H](C(F)(F)F)OC(N)=N3)c2)nc1 [Example 144, N-(3-((4S,6S)-2-amino-4-(fluoromethyl)-6-(trifluoromethyl)-5,6-dihydro-4H-1,3-oxazin-4-yl)phenyl)-5-cyanopicolinamide] | 0.0892 | 665 | – | – | – | IC50 [2, 4]: 0.067 µM
3 | Cc1cc(OC(F)F)cnc1C(=O)Nc1cc(C)c(F)c([C@]2(CF)C[C@@H](C(F)(F)F)OC(N)=N2)c1 [Example 228, N-(3-((4S,6S)-2-amino-4-(fluoromethyl)-6-(trifluoromethyl)-5,6-dihydro-4H-1,3-oxazin-4-yl)-4-fluoro-5-methylphenyl)-5-(difluoromethoxy)-3-methylpicolinamide] | – | – | – | – | – | IC50 ([1]; average): 0.032 µM; IC50 (Cathepsin D (Cat D); average): 775 µM; IC50 [2, 3]: 0.028 µM
4 | COc1cnc(C(=O)Nc2cc(F)c(F)c([C@]3(C)C[C@@H](C(F)(F)F)OC(N)=N3)c2)c(C)n1 [Example 173, N-(3-((4S,6S)-2-amino-4-methyl-6-(trifluoromethyl)-5,6-dihydro-4H-1,3-oxazin-4-yl)-4,5-difluorophenyl)-5-methoxy-3-methylpyrazine-2-carboxamide] | – | – | – | – | – | IC50 ([1]; average): 0.118 µM; IC50 (Cathepsin D (Cat D); average): > 400 µM; IC50 [2, 3]: 0.085 µM
5 | C[C@@]1(c2cc(NC(=O)c3ccc(C#N)cn3)cc(F)c2Cl)C[C@@H](C(F)(F)F)OC(N)=N1 [Example 238, N-(3-((4S,6S)-2-amino-4-methyl-6-(trifluoromethyl)-5,6-dihydro-4H-1,3-oxazin-4-yl)-4-chloro-5-fluorophenyl)-5-cyanopicolinamide] | – | – | – | – | – | IC50 ([1]; average): 0.008 µM; IC50 (Cathepsin D (Cat D); average): 131 µM; IC50 [2, 3]: 0.006 µM
6 | CC#CCOc1cnc(C(=O)Nc2ccc(F)c([C@]3(CF)C[C@@H](C(F)(F)F)OC(N)=N3)c2)cn1 [Example 39, N-(3-((4S,6S)-2-amino-4-(fluoromethyl)-6-(trifluoromethyl)-5,6-dihydro-4H-1,3-oxazin-4-yl)-4-fluorophenyl)-5-(but-2-yn-1-yloxy)pyrazine-2-carboxamide] | – | – | 0.0007 | > 400 | 0.0032 | –
7 | NC1=N[C@](CF)(c2cc(Oc3nccc(C(F)(F)F)c3F)ccc2F)C[C@@H](C(F)(F)F)O1 [Example 109, (4S,6S)-4-(2-fluoro-5-((3-fluoro-4-(trifluoromethyl)pyridin-2-yl)oxy)phenyl)-4-(fluoromethyl)-6-(trifluoromethyl)-5,6-dihydro-4H-1,3-oxazin-2-amine] | 9.52 | > 400 | – | – | – | IC50 [2, 8]: 8.18 µM
8 | NC1=N[C@](CF)(c2cc(Oc3ncc(Cl)cc3F)ccc2F)C[C@@H](C(F)(F)F)O1 [Example 95, (4S,6S)-4-(5-((5-chloro-3-fluoropyridin-2-yl)oxy)-2-fluorophenyl)-4-(fluoromethyl)-6-(trifluoromethyl)-5,6-dihydro-4H-1,3-oxazin-2-amine] | 2.89 | > 400 | – | – | – | IC50 [2, 4]: 2.59 µM
9 | NC1=N[C@](CF)(c2cc(C#Cc3ccc4[nH]ccc4c3)ccc2F)C[C@@H](C(F)(F)F)O1 [Example 131, (4S,6S)-4-(5-((1H-indol-5-yl)ethynyl)-2-fluorophenyl)-4-(fluoromethyl)-6-(trifluoromethyl)-5,6-dihydro-4H-1,3-oxazin-2-amine] | – | – | – | – | – | IC50 ([1]; average): 0.577 µM; IC50 (Cathepsin D (Cat D); average): 381 µM; IC50 [2, 3]: 1.81 µM
10 | NC1=N[C@](CF)(c2cc(NC(=O)c3ccc(C#CC4CC4)cn3)ccc2F)C[C@@H](C(F)(F)F)O1 [Example 53, N-(3-((4S,6S)-2-amino-4-(fluoromethyl)-6-(trifluoromethyl)-5,6-dihydro-4H-1,3-oxazin-4-yl)-4-fluorophenyl)-5-(cyclopropylethynyl)picolinamid] | – | – | 0.023 | 2990 | 0.196 | –
11 | C[C@@]1(c2cc(Nc3nccc4cc(C#N)cnc34)cc(F)c2F)C[C@@H](C(F)(F)F)OC(N)=N1 [Example 180, 8-((3-((4S,6S)-2-amino-4-methyl-6-(trifluoromethyl)-5,6-dihydro-4H-1,3-oxazin-4-yl)-4,5-difluorophenyl)amino)-1,7-naphthyridine-3-carbonitrile] | – | – | 0.014 | > 400 | 0.036 | –
12 | C[C@@]1(c2cc(Nc3nccc4cc(Cl)cnc34)cc(F)c2F)C[C@@H](C(F)(F)F)OC(N)=N1 [Example 176, (4S,6S)-4-(5-((3-chloro-1,7-naphthyridin-8-yl)amino)-2,3-difluorophenyl)-4-methyl-6-(trifluoromethyl)-5,6-dihydro-4H-1,3-oxazin-2-amine] | – | – | 0.021 | 104 | 0.102 | –
13 | COc1cc(C#N)cnc1C(=O)Nc1ccc(F)c([C@]2(CF)C[C@@H](C(F)(F)F)OC(N)=N2)c1 [Example 48, N-(3-((4S,6S)-2-amino-4-(fluoromethyl)-6-(trifluoromethyl)-5,6-dihydro-4H-1,3-oxazin-4-yl)-4-fluorophenyl)-5-cyano-3-methoxypicolinamide] | 0.0418 | > 400 | – | – | – | IC50 [2, 4]: 0.0322 µM
14 | NC1=N[C@](CF)(c2cc(-c3cncc(-c4nnco4)c3)ccc2F)C[C@@H](C(F)(F)F)O1 [Example 118, (4S,6S)-4-(5-(5-(1,3,4-oxadiazol-2-yl)pyridin-3-yl)-2-fluorophenyl)-4-(fluoromethyl)-6-(trifluoromethyl)-5,6-dihydro-4H-1,3-oxazin-2-amine] | – | – | 8.36 | 454 | > 15.6 | –
15 | Cn1cc(NC(=O)c2ccc(Cl)cn2)cc([C@]2(C)C[C@@H](C(F)(F)F)OC(N)=N2)c1=O [Example 148, N-(5-((4S,6S)-2-amino-4-methyl-6-(trifluoromethyl)-5,6-dihydro-4H-1,3-oxazin-4-yl)-1-methyl-6-oxo-1,6-dihydropyridin-3-yl)-5-chloropicolinamide] | 0.366 | > 400 | – | – | – | IC50 [2, 8]: 0.0127 µM
16 | NC1=N[C@](CF)(c2nc(NC(=O)c3ccc(Cl)cn3)ccc2F)C[C@@H](C(F)(F)F)O1 [Example 136, N-(6-((4S,6S)-2-amino-4-(fluoromethyl)-6-(trifluoromethyl)-5,6-dihydro-4H-1,3-oxazin-4-yl)-5-fluoropyridin-2-yl)-5-chloropicolinamide] | 32 | > 400 | 0.169 | 717 | 0.132 | IC50 [2, 4]: > 15.6 µM
17 | COc1cnc(C(=O)Nc2cc(F)c(F)c([C@]3(C)C[C@@H](C(F)(F)F)OC(N)=N3)c2)c(F)c1 [Example 239, N-(3-((4S,6S)-2-amino-4-methyl-6-(trifluoromethyl)-5,6-dihydro-4H-1,3-oxazin-4-yl)-4,5-difluorophenyl)-3-fluoro-5-methoxypicolinamide] | – | – | – | – | – | IC50 ([1]; average): 0.033 µM; IC50 (Cathepsin D (Cat D); average): 1180 µM; IC50 [2, 3]: 0.012 µM
18 | C[C@@]1(c2cc(Nc3ncc(F)c4cc(C#N)cnc34)cc(F)c2F)C[C@@H](C(F)(F)F)OC(N)=N1 [Example 177, 8-((3-((4S,6S)-2-amino-4-methyl-6-(trifluoromethyl)-5,6-dihydro-4H-1,3-oxazin-4-yl)-4,5-difluorophenyl)amino)-5-fluoro-1,7-naphthyridine-3-carbonitrile] | – | – | 0.03 | > 4.94 | 0.275 | –
19 | C[C@@]1(c2cc(Nc3nccc4cc(C#N)cnc34)cnc2F)C[C@@H](C(F)(F)F)OC(N)=N1 [Example 77, 8-((5-((4S,6S)-2-amino-4-methyl-6-(trifluoromethyl)-5,6-dihydro-4H-1,3-oxazin-4-yl)-6-fluoropyridin-3-yl)amino)-1,7-naphthyridine-3-carbonitrile] | 0.0956 | > 400 | – | – | – | IC50 [2, 4]: 0.0248 µM
20 | NC1=N[C@](CF)(c2cc(NC(=O)c3ccc(Cl)cn3)cnc2F)C[C@@H](C(F)(F)F)O1 [Example 139, N-(5-((4S,6S)-2-amino-4-(fluoromethyl)-6-(trifluoromethyl)-5,6-dihydro-4H-1,3-oxazin-4-yl)-6-fluoropyridin-3-yl)-5-chloropicolinamide] | 0.0965 | > 400 | – | – | – | IC50 [2, 8]: 0.418 µM
21 | NC1=N[C@](CF)(c2cc(Nc3ncccc3F)ccc2F)C[C@@H](C(F)(F)F)O1 [Example 14, (4S,6S)-4-(2-fluoro-5-((3-fluoropyridin-2-yl)-amino)phenyl)-4-(fluoromethyl)-6-(trifluoromethyl)-5,6-dihydro-4H-1,3-oxazin-2-amine] | – | – | 0.574 | 879 | 0.758 | –
22 | C[C@@]1(c2cc(NC(=O)N3CC=CCC3)ccc2F)C[C@@H](C(F)(F)F)OC(N)=N1 [Example 123, N-(3-((4S,6S)-2-amino-4-methyl-6-(trifluoromethyl)-5,6-dihydro-4H-1,3-oxazin-4-yl)-4-fluorophenyl)-5,6-dihydropyridine-1(2H)-carboxamide] | – | – | 11.5 | > 400 | 0.908 | –

From patent publication US9296734B2 (AMGEN INC., priority 2013, dated 2016)
